Experimental data taken from patent US20240327425A1, “KRAS G12D INHIBITOR AND USE THEREOF” (SHANGHAI DE NOVO PHARMATECH CO., LTD., priority 2021, published 2024).
Where a name gives a salt, the structure may show the parent alone.

biological target: Human KRAS G12D His-tagged protein (Homo sapiens (Human), UniProt P01116, G12D); experiment: KRAS G12D binding assay (TR-FRET); conditions: GDP 20 nM, GTP-Red
Experimental: The binding ability of the compound to KRAS G12D protein was detected by TR-FRET method, and the inhibitory activity of the compound on KRAS G12D protein was evaluated. Human KRAS G12D His-tagged (Cisbio, 63ADK000CB27PEG) protein was 100-fold diluted with PPI Eu detection buffer (Cisbio, 61DB9RBF), then 5 μL of which was added to a 384-well plate and centrifuged at 2000 rpm for 40 seconds. A 10 mM concentrated stock solution of the test compound was prepared with dimethyl sulfoxide, 3-fold serially diluted, then diluted to make a working solution (0.5% DMSO) with PPI Eu detection buffer, added to a 384-well plate at 5 μL/well, with the control group added with 0.5% dimethyl sulfoxide and the highest concentration of the test compound at 10 μM, and centrifuged at 2000 rpm for 40 seconds. An 80 nM GDP standard working solution (Cisbio, 63ADK000CB27PEG) was prepared with PPI Eu detection buffer and added to a 384-well plate at 5 μL/well, with the final concentration of GDP standard working solution at 20 nM. The plate was centrifuged at 2000 rpm for 40 seconds and reacted at room temperature for 30 minutes. 1×6His Eu cryptate antibody and GTP-Red reagent (Cisbio, 63ADK000CB27PEG) were prepared with PPI Eu detection buffer, mixed in a volume ratio of 1:1, 5 μL of which was then added to a 384-well plate, centrifuged at 2000 rpm for 40 seconds, and incubated at room temperature for 30 minutes. The fluorescence intensity at 620 nm and 665 nm was detected by a microplate reader, and the inhibitory activity of the compound on KRAS G12D protein was obtained by fitting a four-parameter equation.

Compound	IC50 [nM]
4-((5aS,6S,9R)-3-chloro-1-fluoro-13-(((2R,7aS)-2-fluorohexahydro-1H-pyrrolizin-7a-yl)methoxy)-5a,6,7,8,9,10-hexahydro-5H-6,9-epiminoazepino[2′,1′:3,4][1,4]oxazepino[5,6,7-de]quinazolin-2-yl)-1-(difluoromethyl)-1H-benzo[d]imidazol-2-amine ditrifluoroacetate [Compound I-23]	217
N#Cc1c(N)sc2cccc(-c3c(Cl)c4c5c(nc(OC[C@@]67CCCN6C[C@H](F)C7)nc5c3F)N3C[C@H]5CC[C@H](N5)[C@H]3CO4)c12 (single isomer, unassigned) [Compound I-7-1]	186
N#Cc1c(N)sc2c(F)ccc(-c3c(Cl)c4c5c(ncnc5c3F)N3C[C@H]5CC[C@H](N5)[C@H]3CO4)c12 (single isomer, unassigned) [Compound I-8-2]	60.4
N#Cc1c(N)sc2cccc(-c3c(Cl)c4c5c(ncnc5c3F)N3C[C@H]5CC[C@H](N5)[C@H]3CO4)c12 (single isomer, unassigned) [Compound I-10-2]	75.8
N#Cc1c(N)sc2c(F)ccc(-c3c(Cl)c4c5c(nc(OC[C@@]67CCCN6C[C@H](F)C7)nc5c3F)N3C[C@H]5CC[C@H](N5)[C@H]3CO4)c12 (single isomer, unassigned) [Compound I-11-2]	5.9
Nc1nc2c(-c3c(Cl)c4c5c(nc(OC[C@@]67CCCN6C[C@H](F)C7)nc5c3F)N3C[C@H]5CC[C@H](N5)[C@H]3CO4)cccc2s1 (single isomer, unassigned) [Compound I-12-1]	30.3
Nc1nc2c(-c3c(Cl)c4c5c(nc(OC[C@@]67CCCN6C[C@H](F)C7)nc5c3F)N3C[C@H]5CC[C@H](N5)[C@H]3CO4)ccc(F)c2s1 (single isomer, unassigned) [Compound I-19-2]	4.63
[2H]C([2H])(Oc1nc2c3c(c(Cl)c(-c4cccc5sc(N)c(C#N)c45)c(F)c3n1)OC[C@@H]1[C@@H]3CC[C@H](CN21)N3)[C@@]12CCCN1C[C@H](F)C2 (single isomer, unassigned) [Compound I-24-1]	136
Nc1n[nH]c2sc3cccc(-c4c(Cl)c5c6c(nc(OC[C@@]78CCCN7C[C@H](F)C8)nc6c4F)N4C[C@H]6CC[C@H](N6)[C@H]4CO5)c3c12 (single isomer, unassigned) [Compound I-26-2]	11
[2H]C1([2H])CC[C@@]2(C([2H])([2H])Oc3nc4c5c(c(Cl)c(-c6cccc7sc(N)c(C#N)c67)c(F)c5n3)OC[C@@H]3[C@@H]5CC[C@H](CN43)N5)C[C@@H](F)CN12 (single isomer, unassigned) [Compound I-27-1]	212
C#Cc1cccc2cc(O)cc(-c3nc4c5c(nc(OC[C@@]67CCCN6C[C@H](F)C7)nc5c3F)N3CC5CCC(N5)C3CO4)c12 (stereo partly drawn) [Compound I-1-1, 5-ethynyl-4-(1-fluoro-12-(((2R,7aS)-2-fluorohexahydro-1H-pyrrolizin-7a-yl)methoxy)-5a,6,7,8,9,10-hexahydro-5H-4-oxa-3,10a,11,13,14-pentaaza-6,9-methanonaphtho[1,8-ab]heptan-2-yl)naphthalen-2-ol]	11
C#Cc1cccc2cc(O)cc(-c3nc4c5c(nc(OC[C@@]67CCCN6C[C@H](F)C7)nc5c3F)N3C[C@H]5CC[C@H](N5)[C@H]3CO4)c12 [Compound I-4, 5-ethynyl-4-((5aS,6S,9R)-1-fluoro-12-(((2R,7aS)-2-fluorohexahydro-1H-pyrrolizin-7a(5H)-yl)methoxy)-5a,6,7,8,9,10-hexahydro-5H-4-oxa-3,10a,11,13,14-pentaaza-6,9-methanonaphtho[1,8-ab]heptan-2-yl)naphthalen-2-ol ditrifluoroacetate]	2.72
C#Cc1cccc2cc(O)cc(-c3nc4c5c(nc(OC[C@@]67CCCN6C[C@H](F)C7)nc5c3F)N3C[C@@H]5CC[C@@H](N5)[C@@H]3CO4)c12 [Compound I-5, 5-ethynyl-4-((5aR,6R,9S)-1-fluoro-12-(((2R,7aS)-2-fluorohexahydro-1H-pyrrolizin-7a(5H)-yl)methoxy)-5a,6,7,8,9,10-hexahydro-5H-4-oxa-3,10a,11,13,14-pentaaza-6,9-methanonaphtho[1,8-ab]heptan-2-yl)naphthalen-2-ol ditrifluoroacetate]	25.4
N#Cc1c(N)sc2cccc(-c3c(Cl)c4c5c(ncnc5c3F)N3CC5CCC(N5)C3CO4)c12 (stereo not drawn) [Compound I-6-2, 2-amino-4-(3-chloro-1-fluoro-5a,6,7,8,9,10-hexahydro-5H-6,9-epiminoazepino[2′,1′:3,4][1,4]oxazepino[5,6,7-de]quinazolin-2-yl)benzo[b]thiophene-3-carbonitrile (trans) trifluoroacetate]	53.5
N#Cc1c(N)nn2cccc(-c3c(Cl)c4c5c(nc(OC[C@@]67CCCN6C[C@H](F)C7)nc5c3F)N3C[C@H]5CC[C@H](N5)[C@H]3CO4)c12 [Compound I-13, 2-amino-4-((5aS,6S,9R)-3-chloro-1-fluoro-13-(((2R,7aS)-2-fluorohexahydro-1H-pyrrolizin-7a-yl)methoxy)-5a,6,7,8,9,10-hexahydro-5H-6,9-epiminoazepino[2′,1′:3,4][1,4]oxazepino[5,6,7-de]quinazolin-2-yl)pyrazolo[1,5-a]pyridine-3-carbonitrile]	32.5
Nc1cc2c(-c3c(Cl)c4c5c(nc(OC[C@@]67CCCN6C[C@H](F)C7)nc5c3F)N3C[C@H]5CC[C@H](N5)[C@H]3CO4)c(Cl)ccc2s1 [Compound I-15, 5-chloro-4-((5aS,6S,9R)-3-chloro-1-fluoro-13-(((2R,7aS)-2-fluorohexahydro-1H-pyrrolizin-7a-yl)methoxy)-5a,6,7,8,9,10-hexahydro-5H-6,9-epiminoazepino[2′,1′:3,4][1,4]oxazepino[5,6,7-de]quinazolin-2-yl)benzo[b]thiophen-2-amine ditrifluoroacetate]	38.1
Nc1cc2cc(-c3c(Cl)c4c5c(nc(OC[C@@]67CCCN6C[C@H](F)C7)nc5c3F)N3C[C@H]5CC[C@H](N5)[C@H]3CO4)ccc2s1 [Compound I-16, 5-((5aS,6S,9R)-3-chloro-1-fluoro-13-(((2R,7aS)-2-fluorohexahydro-1H-pyrrolizin-7a-yl)methoxy)-5a,6,7,8,9,10-hexahydro-5H-6,9-epiminoazepino[2′,1′:3,4][1,4]oxazepino[5,6,7-de]quinazolin-2-yl)benzo[b]thiophen-2-amine ditrifluoroacetate]	24
CC(Oc1nc2c3c(c(Cl)c(-c4cccc5sc(N)c(C#N)c45)c(F)c3n1)OCC1C3CCC(CN21)N3)C12CCCN1CC(F)C2 [Compound I-17-1, 2-amino-4-((5aS,6S,9R)-3-chloro-1-fluoro-13-(1-((2R,7aS)-2-fluorohexahydro-1H-pyrrolizin-7a-yl)ethoxy)-5a,6,7,8,9,10-hexahydro-5H-6,9-epiminoazepino[2′,1′:3,4][1,4]oxazepino[5,6,7-de]quinazolin-2-yl)benzo[b]thiophene-3-carbonitrile]	646
CC(Oc1nc2c3c(c(Cl)c(-c4cccc5sc(N)c(C#N)c45)c(F)c3n1)OC[C@H]1[C@@H]3CC[C@H](CN21)N3)[C@@]12CCCN1C[C@@H](F)C2 (stereo partly drawn) [Compound I-17-2, 2-amino-4-((5aS,6S,9R)-3-chloro-1-fluoro-13-(1-((2R,7aS)-2-fluorohexahydro-1H-pyrrolizin-7a-yl)ethoxy)-5a,6,7,8,9,10-hexahydro-5H-6,9-epiminoazepino[2′,1′:3,4][1,4]oxazepino[5,6,7-de]quinazolin-2-yl)benzo[b]thiophene-3-carbonitrile]	6.9
